# According to patent publication US11739070B2, “C5A receptor modulators” (IDORSIA PHARMACEUTICALS LTD, priority 2018, dated 2023):
# Target: T1, C5AR1 (Homo sapiens, UniProt P21730)
# T1 construct: host or cells: CHO-K1
# T1 sequence (P21730 1-350): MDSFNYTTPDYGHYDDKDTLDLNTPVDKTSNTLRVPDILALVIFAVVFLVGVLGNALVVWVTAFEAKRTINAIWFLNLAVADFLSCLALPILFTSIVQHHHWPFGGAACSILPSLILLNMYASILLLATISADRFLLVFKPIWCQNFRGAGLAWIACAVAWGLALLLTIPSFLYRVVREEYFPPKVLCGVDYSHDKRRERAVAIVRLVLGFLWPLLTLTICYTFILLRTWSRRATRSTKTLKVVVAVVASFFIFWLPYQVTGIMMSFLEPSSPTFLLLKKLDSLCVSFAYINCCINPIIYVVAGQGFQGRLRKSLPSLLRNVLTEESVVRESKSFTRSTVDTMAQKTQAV
# Experiment: hC5a DISCO IC50 assay (PathHunter beta-arrestin, antagonist mode)
# Format: cell-based
# Conditions: CHO-K1 C5AR1 beta-arrestin cell line; antagonist vs 1-10 nM C5a agonist; geometric mean values; read-out: C5aR IC50
# Outline: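 Antagonist added first, then 1-10 nM C5a agonist; cells incubated 1.5 h at 37 °C. Beta-arrestin signal developed with PathHunter detection reagent, 45 min at RT. IC50 in nmol/l from serial antagonist dilutions, reported as geometric mean of several measurements.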
row,IC50,SMILES
1,73 nM,"COc1cccc2c1n(Cc1ccccc1C(F)(F)F)c(=O)n2[C@@H]1CCN(c2c(F)cccc2C#CCN2CCOCC2)C1 [Example 159, 1-{(R)-1-[2-Fluoro-6-(3-morpholin-4-yl-prop-1-ynyl)-phenyl]-pyrrolidin-3-yl}-4-methoxy-3-(2-trifluoromethyl-benzyl)-1,3-dihydro-benzoimidazol-2-one]"
2,35 nM,"COc1cccc2c1n(Cc1ccccc1C(F)(F)F)c(=O)n2[C@@H]1CCN(c2ccccc2F)C1 [Example 160, 1-[(R)-1-(2-Fluoro-phenyl)-pyrrolidin-3-yl]-4-methoxy-3-(2-trifluoromethyl-benzyl)-1,3-dihydro-benzoimidazol-2-one]"
3,69 nM,"COc1cccc2c1n(Cc1ccccc1C(F)(F)F)c(=O)n2[C@@H]1CCN(c2c(F)cccc2N2CCOCC2)C1 [Example 161, 1-[(R)-1-(2-Fluoro-6-morpholin-4-yl-phenyl)-pyrrolidin-3-yl]-4-methoxy-3-(2-trifluoromethyl-benzyl)-1,3-dihydro-benzoimidazol-2-one]"
4,135 nM,"COc1cccc2c1n(Cc1ccccc1C(F)(F)F)c(=O)n2[C@@H]1CCN(c2c(F)cccc2CCCN2CCOCC2)C1 [Example 162, 1-{(R)-1-[2-Fluoro-6-(3-morpholin-4-yl-propyl)-phenyl]-pyrrolidin-3-yl}-4-methoxy-3-(2-trifluoromethyl-benzyl)-1,3-dihydro-benzoimidazol-2-one]"
5,591 nM,"COc1cccc2c1n(Cc1ccccc1C(F)(F)F)c(=O)n2[C@@H]1CCN(c2c(F)cccc2C(C)N2CC(OC)C2)C1 (stereo partly drawn) [Example 163, 1-((R)-1-{2-Fluoro-6-[1-(3-methoxy-azetidin-1-yl)-ethyl]-phenyl}-pyrrolidin-3-yl)-4-methoxy-3-(2-trifluoromethyl-benzyl)-1,3-dihydro-benzoimidazol-2-one]"
6,179 nM,"CCOC(=O)C1CN(C(=O)OC(C)(C)C)CCC1n1c(=O)n(Cc2ccccc2C(F)(F)F)c2c(OC)cccc21 (stereo not drawn) [Example 164, 4-[4-Methoxy-2-oxo-3-(2-trifluoromethyl-benzyl)-2,3-dihydro-benzoimidazol-1-yl]-piperidine-1,3-dicarboxylic acid 1-tert-butyl ester 3-ethyl ester]"
7,6 nM,"COc1cccc2c1n(Cc1ccccc1OC(C)C)c(=O)n2[C@@H]1CCN(c2c(C)cccc2F)C1 [Example 165, 1-[(R)-1-(2-Fluoro-6-methyl-phenyl)-pyrrolidin-3-yl]-3-(2-isopropoxy-benzyl)-4-methoxy-1,3-dihydro-benzoimidazol-2-one]"
8,17 nM,"COc1cccc2c1n(Cc1ccccc1OC(C)C)c(=O)n2C1CCN(c2c(C)cccc2F)CC1 [Example 166, 1-[1-(2-Fluoro-6-methyl-phenyl)-piperidin-4-yl]-3-(2-isopropoxy-benzyl)-4-methoxy-1,3-dihydro-benzoimidazol-2-one]"
9,6 nM,"COc1cccc2c1n(Cc1nccnc1C(F)(F)F)c(=O)n2[C@@H]1CCN(c2c(C)cccc2F)C1 [Example 167, 1-[(R)-1-(2-Fluoro-6-methyl-phenyl)-pyrrolidin-3-yl]-4-methoxy-3-(3-trifluoromethyl-pyrazin-2-ylmethyl)-1,3-dihydro-benzoimidazol-2-one]"
10,10 nM,"COc1cccc2c1n(Cc1nccnc1C(F)(F)F)c(=O)n2C1CCN(c2c(C)cccc2F)CC1 [Example 168, 1-[1-(2-Fluoro-6-methyl-phenyl)-piperidin-4-yl]-4-methoxy-3-(3-trifluoromethyl-pyrazin-2-ylmethyl)-1,3-dihydro-benzoimidazol-2-one]"
11,17 nM,"COc1nccnc1Cn1c(=O)n([C@@H]2CCN(c3c(C)cccc3F)C2)c2cccc(OC)c21 [Example 169, 1-[(R)-1-(2-Fluoro-6-methyl-phenyl)-pyrrolidin-3-yl]-4-methoxy-3-(3-methoxy-pyrazin-2-ylmethyl)-1,3-dihydro-benzoimidazol-2-one]"
12,45 nM,"COc1nccnc1Cn1c(=O)n(C2CCN(c3c(C)cccc3F)CC2)c2cccc(OC)c21 [Example 170, 1-[1-(2-Fluoro-6-methyl-phenyl)-piperidin-4-yl]-4-methoxy-3-(3-methoxy-pyrazin-2-ylmethyl)-1,3-dihydro-benzoimidazol-2-one]"
13,64 nM,"COc1cc(C)nc2c1n(Cc1ccccc1C(F)(F)F)c(=O)n2[C@@H]1CCN(c2c(C)cccc2F)C1 [Example 171, 3-[(R)-1-(2-Fluoro-6-methyl-phenyl)-pyrrolidin-3-yl]-7-methoxy-5-methyl-1-(2-trifluoromethyl-benzyl)-1,3-dihydro-imidazo[4,5-b]pyridin-2-one]"
14,275 nM,"COc1cccc2c1n(Cc1nnc(Cl)cc1OC(C)C)c(=O)n2[C@@H]1CCN(c2c(C)cccc2F)C1 [Example 172, 3-(6-Chloro-4-isopropoxy-pyridazin-3-ylmethyl)-1-[(R)-1-(2-fluoro-6-methyl-phenyl)-pyrrolidin-3-yl]-4-methoxy-1,3-dihydro-benzoimidazol-2-one]"
15,107 nM,"COc1cccc2c1n(Cc1nnccc1OC(C)C)c(=O)n2[C@@H]1CCN(c2c(C)cccc2F)C1 [Example 173, 1-[(R)-1-(2-Fluoro-6-methyl-phenyl)-pyrrolidin-3-yl]-3-(4-isopropoxy-pyridazin-3-ylmethyl)-4-methoxy-1,3-dihydro-benzoimidazol-2-one]"
16,544 nM,"COc1cccc2c1n(Cc1nnccc1C)c(=O)n2[C@@H]1CCN(c2c(C)cccc2F)C1 [Example 174, 1-[(R)-1-(2-Fluoro-6-methyl-phenyl)-pyrrolidin-3-yl]-4-methoxy-3-(4-methyl-pyridazin-3-ylmethyl)-1,3-dihydro-benzoimidazol-2-one]"
17,221 nM,"COc1ncncc1Cn1c(=O)n([C@@H]2CCN(c3c(C)cccc3F)C2)c2cccc(OC)c21 [Example 175, 1-[(R)-1-(2-Fluoro-6-methyl-phenyl)-pyrrolidin-3-yl]-4-methoxy-3-(4-methoxy-pyrimidin-5-ylmethyl)-1,3-dihydro-benzoimidazol-2-one]"
18,48 nM,"COc1cccc2c1n(Cc1cncnc1C(F)(F)F)c(=O)n2[C@@H]1CCN(c2c(C)cccc2F)C1 [Example 176, 1-[(R)-1-(2-Fluoro-6-methyl-phenyl)-pyrrolidin-3-yl]-4-methoxy-3-(4-trifluoromethyl-pyrimidin-5-ylmethyl)-1,3-dihydro-benzoimidazol-2-one]"
19,24 nM,"COc1cccc2c1n(Cc1nccnc1OC(C)C)c(=O)n2[C@@H]1CCN(c2c(C)cccc2F)C1 [Example 177, 1-[(R)-1-(2-Fluoro-6-methyl-phenyl)-pyrrolidin-3-yl]-3-(3-isopropoxy-pyrazin-2-ylmethyl)-4-methoxy-1,3-dihydro-benzoimidazol-2-one]"
20,49 nM,"COc1cccc2c1n(Cc1nccnc1OC(C)C)c(=O)n2C1CCN(c2c(C)cccc2F)CC1 [Example 178, 1-[1-(2-Fluoro-6-methyl-phenyl)-piperidin-4-yl]-3-(3-isopropoxy-pyrazin-2-ylmethyl)-4-methoxy-1,3-dihydro-benzoimidazol-2-one]"
21,122 nM,"COc1cccc2c1n(Cc1ccccc1C(F)(F)F)c(=O)n2C1CCCN(C(=O)OC(C)(C)C)CC1 (stereo not drawn) [Example 179, 4-[4-Methoxy-2-oxo-3-(2-trifluoromethyl-benzyl)-2,3-dihydro-benzoimidazol-1-yl]-azepane-1-carboxylic acid tert-butyl ester]"
